Results as given in ChEMBL document CHEMBL1201862, “PubChem BioAssay data set” (2004).
The source made the active and inactive calls.

How the values were obtained:
[1] = CFTR ΔF508 corrector activity in bronchial cells, dose response, human bronchial epithelial cells, plate reader, cherry-pick, two tests (AID 743267); assay type: functional, cell-based
[2] = inhibitors of PGC1a acetylation in cells, dose response, cell-based, cherry-picked samples (AID 720514); assay type: functional;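 note: potency may reflect raised or lowered acetylation signal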
[3] = target: Eukaryotic translation initiation factor 4E (Mus musculus, UniProt P63073); assay: eIF4E–eIF4G protein interaction inhibitors, dose response, biochemical, TR-FRET (AID 855); assay type: functional;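 note: potency for disrupting eIF4E binding to eIF4GI seen as loss of FRET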
[4] = target: NAD-dependent protein deacylase sirtuin-5, mitochondrial (Homo sapiens, UniProt Q9NXA8); assay: SIRT5 desuccinylase inhibitors, dose response, biochemical, fluorescence imaging, cherry-pick, set 5 (AID 720591);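 note: desuccinylation of succinyl peptide AMC substrate read as fluorescence after trypsin release; potency of inhibitors that lower fluorescence and may act on trypsin instead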
[5] = CEM21 cell cytotoxicity, dose response, cytotoxicity control, plate reader, dry powder (AID 687026); assay type: functional, cell-based
[6] = cytotoxicity toward NIH3T3 fibroblasts, dose response, counter-screen, cell-based, ATP luminescence, mouse fibroblasts (AID 2010); assay type: functional;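 note: cells exposed to compound for about 90 hours before reading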
[7] = inhibitors of HIV Env-driven cell fusion, dose response, cherry-pick (AID 652057); assay type: functional, cell-based
[8] = target: T1, Estrogen receptor (Homo sapiens, UniProt P03372);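 note: potency for inhibiting coactivator peptide recruitment to the receptor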
T1 sequence (P03372 whole entry): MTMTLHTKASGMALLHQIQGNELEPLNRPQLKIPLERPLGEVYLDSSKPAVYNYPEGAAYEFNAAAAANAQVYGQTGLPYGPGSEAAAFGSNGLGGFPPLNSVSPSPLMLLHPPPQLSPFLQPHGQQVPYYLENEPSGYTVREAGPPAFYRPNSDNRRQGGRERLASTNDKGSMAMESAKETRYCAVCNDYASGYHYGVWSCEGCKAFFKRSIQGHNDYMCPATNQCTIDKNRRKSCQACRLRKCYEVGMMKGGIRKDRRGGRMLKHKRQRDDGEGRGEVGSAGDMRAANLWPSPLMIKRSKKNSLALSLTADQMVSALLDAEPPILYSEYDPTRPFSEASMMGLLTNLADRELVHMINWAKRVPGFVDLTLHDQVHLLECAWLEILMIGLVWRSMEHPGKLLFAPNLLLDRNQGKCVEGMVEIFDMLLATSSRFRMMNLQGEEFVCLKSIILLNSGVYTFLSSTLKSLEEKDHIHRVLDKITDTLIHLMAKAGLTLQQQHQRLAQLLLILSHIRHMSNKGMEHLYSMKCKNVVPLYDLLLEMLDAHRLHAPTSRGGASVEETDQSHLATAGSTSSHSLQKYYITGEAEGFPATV

[9] = ZM109 Env clade C HIV-1 fusion inhibitors, dose response, HeLa effector, CEM target cells, luciferase, cherry-pick (AID 652058); assay type: functional, cell-based
[10] = inhibitors of intracellular T. cruzi replication, confirmation, NIH3T3 host cells, beta-gal luminescence (AID 2044); assay type: functional, cell-based;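 note: intracellular parasites grown in NIH/3T3 mouse fibroblasts as host cells; luminescent beta-galactosidase reporter signal from transgenic T. cruzi replicating inside host cells; inhibitors lower the luminescence signal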
[11] = target: Histone-lysine N-methyltransferase NSD2 (Homo sapiens, UniProt O96028); assay type: biochemical
[12] = target: Tyrosine-protein phosphatase non-receptor type 5 (Homo sapiens, UniProt P54829); assay: STEP phosphatase inhibitors, confirmation, biochemical, fluorescence intensity, uHTS hits (AID 602372); assay type: functional; conditions: read-out: IC50_Mean
Tyrosine-protein phosphatase non-receptor type 5, sequence (P54829 whole entry): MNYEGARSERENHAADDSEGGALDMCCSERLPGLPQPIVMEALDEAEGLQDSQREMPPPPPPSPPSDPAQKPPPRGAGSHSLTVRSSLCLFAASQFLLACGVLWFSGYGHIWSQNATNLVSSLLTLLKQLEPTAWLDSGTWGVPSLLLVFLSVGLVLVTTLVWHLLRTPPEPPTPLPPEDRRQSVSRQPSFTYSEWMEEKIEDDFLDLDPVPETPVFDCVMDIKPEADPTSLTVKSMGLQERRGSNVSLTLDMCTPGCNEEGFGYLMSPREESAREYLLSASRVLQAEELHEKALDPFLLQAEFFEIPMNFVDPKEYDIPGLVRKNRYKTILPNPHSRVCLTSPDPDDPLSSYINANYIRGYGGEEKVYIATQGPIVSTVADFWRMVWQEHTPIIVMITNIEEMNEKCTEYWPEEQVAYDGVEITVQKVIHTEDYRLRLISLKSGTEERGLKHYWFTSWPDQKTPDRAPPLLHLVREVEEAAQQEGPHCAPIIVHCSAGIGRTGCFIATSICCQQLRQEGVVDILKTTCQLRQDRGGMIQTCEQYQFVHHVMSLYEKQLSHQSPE

[13] = target: Tyrosine-protein phosphatase non-receptor type 11 (Homo sapiens, UniProt Q06124); assay: SHP2 phosphatase inhibition, dose response, selectivity assay for STEP inhibitor project, biochemical (AID 602367); assay type: functional; conditions: read-out: IC50_Mean
Tyrosine-protein phosphatase non-receptor type 11, sequence (Q06124 whole entry): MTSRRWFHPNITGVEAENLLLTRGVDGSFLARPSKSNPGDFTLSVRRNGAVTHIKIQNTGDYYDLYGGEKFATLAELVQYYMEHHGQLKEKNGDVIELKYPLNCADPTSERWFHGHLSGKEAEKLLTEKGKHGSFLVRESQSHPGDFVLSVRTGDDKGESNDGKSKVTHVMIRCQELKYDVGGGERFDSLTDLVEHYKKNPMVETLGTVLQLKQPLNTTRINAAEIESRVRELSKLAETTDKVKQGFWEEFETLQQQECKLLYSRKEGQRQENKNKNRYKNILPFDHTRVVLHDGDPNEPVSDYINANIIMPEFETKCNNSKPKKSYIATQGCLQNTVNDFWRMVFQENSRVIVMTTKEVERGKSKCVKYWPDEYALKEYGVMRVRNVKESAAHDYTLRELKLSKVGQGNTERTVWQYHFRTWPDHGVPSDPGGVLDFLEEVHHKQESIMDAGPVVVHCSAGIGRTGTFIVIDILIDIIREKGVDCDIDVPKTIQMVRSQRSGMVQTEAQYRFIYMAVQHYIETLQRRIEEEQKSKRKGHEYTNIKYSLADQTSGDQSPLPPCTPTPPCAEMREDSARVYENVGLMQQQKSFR

[14] = target: Dual specificity protein phosphatase 3 (Homo sapiens, UniProt P51452); assay: VHR phosphatase inhibition, dose response, selectivity assay for STEP inhibitor project, biochemical (AID 602374); assay type: functional; conditions: read-out: IC50_Mean
Dual specificity protein phosphatase 3, sequence (P51452 whole entry): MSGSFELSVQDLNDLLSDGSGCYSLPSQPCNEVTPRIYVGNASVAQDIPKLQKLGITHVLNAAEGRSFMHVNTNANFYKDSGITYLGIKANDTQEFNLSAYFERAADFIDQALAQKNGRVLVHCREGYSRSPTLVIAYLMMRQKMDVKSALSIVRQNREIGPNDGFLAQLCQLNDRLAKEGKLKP

[15] = target: T2, Tyrosine-protein phosphatase non-receptor type 22 (Homo sapiens, UniProt Q9Y2R2); assay: PTPN22 phosphatase inhibition, dose response, selectivity assay for STEP inhibitor project, biochemical (AID 624241); assay type: functional
T2 sequence (Q9Y2R2 whole entry): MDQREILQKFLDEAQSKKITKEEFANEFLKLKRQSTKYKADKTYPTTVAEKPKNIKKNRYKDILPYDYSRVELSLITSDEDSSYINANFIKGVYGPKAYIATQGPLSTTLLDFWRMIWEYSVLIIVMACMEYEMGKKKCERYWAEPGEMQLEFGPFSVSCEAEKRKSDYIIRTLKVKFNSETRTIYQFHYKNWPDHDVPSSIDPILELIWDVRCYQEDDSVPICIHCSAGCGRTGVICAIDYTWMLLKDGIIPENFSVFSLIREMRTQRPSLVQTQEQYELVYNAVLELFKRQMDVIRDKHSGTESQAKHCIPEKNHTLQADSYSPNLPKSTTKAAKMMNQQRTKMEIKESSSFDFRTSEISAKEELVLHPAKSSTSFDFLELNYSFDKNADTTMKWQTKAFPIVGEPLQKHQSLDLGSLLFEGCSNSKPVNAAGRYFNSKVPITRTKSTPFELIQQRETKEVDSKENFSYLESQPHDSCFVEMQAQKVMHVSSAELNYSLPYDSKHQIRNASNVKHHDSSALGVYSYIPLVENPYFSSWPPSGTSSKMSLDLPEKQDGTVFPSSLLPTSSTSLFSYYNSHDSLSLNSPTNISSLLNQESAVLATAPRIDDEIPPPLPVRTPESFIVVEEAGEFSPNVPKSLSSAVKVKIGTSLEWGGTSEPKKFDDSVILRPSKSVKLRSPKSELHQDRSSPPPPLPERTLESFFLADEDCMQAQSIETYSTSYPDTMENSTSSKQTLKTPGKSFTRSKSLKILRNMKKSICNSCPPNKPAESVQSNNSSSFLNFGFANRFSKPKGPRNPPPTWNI

[16] = target: Tyrosyl-DNA phosphodiesterase 2 (Homo sapiens, UniProt O95551); assay: human TDP2 enzyme inhibitors, dose response, biochemical, epi absorbance, IC50 (AID 743297)
Tyrosyl-DNA phosphodiesterase 2, sequence (O95551 whole entry): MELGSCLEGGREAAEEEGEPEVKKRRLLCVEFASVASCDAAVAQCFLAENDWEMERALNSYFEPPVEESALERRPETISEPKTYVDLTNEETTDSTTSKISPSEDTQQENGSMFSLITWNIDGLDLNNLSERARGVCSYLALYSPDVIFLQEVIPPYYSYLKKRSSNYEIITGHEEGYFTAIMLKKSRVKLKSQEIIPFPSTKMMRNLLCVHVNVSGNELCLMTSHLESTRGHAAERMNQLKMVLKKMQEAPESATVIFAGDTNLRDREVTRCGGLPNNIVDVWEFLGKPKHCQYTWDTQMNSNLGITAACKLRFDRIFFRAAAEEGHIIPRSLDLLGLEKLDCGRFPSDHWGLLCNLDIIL

[17] = target: Caspase-7 (Homo sapiens, UniProt P55210); assay: human caspase-7 inhibitors, dose response, selectivity assay for caspase-6 inhibitor project, biochemical, DEVD-R110 fluorescence, cherry-pick (AID 743295)
Caspase-7, sequence (P55210 24-198 limits assumed): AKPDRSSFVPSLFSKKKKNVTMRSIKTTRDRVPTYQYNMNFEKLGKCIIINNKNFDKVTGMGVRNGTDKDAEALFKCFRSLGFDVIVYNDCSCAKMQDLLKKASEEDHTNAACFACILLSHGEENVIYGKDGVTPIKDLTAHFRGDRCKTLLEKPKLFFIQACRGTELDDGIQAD
Caspase-7, sequence (P55210 207-303 limits assumed): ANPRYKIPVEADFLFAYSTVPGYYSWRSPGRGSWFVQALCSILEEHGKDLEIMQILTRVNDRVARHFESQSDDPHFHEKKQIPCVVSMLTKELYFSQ

[18] = HepG2 cell cytotoxicity, dose response, cytotoxicity control for Shn3 inhibitor project, CellTiter-Glo, cherry-picked (AID 624134); assay type: functional, cell-based
[19] = CEM21 lymphoblast cell cytotoxicity, dose response, cytotoxicity control for viral fusion inhibitor project, CellTiter-Glo luminescence, cherry-picked (AID 652042); assay type: functional, cell-based;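 note: potency for signal decrease meaning cytotoxicity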
[20] = target: T3, Caspase-6 (Homo sapiens, UniProt P55212); assay: human caspase-6 inhibitors, dose response, biochemical, VEID-R110 fluorescence, cherry-pick (AID 720632)
T3 sequence (P55212 whole entry): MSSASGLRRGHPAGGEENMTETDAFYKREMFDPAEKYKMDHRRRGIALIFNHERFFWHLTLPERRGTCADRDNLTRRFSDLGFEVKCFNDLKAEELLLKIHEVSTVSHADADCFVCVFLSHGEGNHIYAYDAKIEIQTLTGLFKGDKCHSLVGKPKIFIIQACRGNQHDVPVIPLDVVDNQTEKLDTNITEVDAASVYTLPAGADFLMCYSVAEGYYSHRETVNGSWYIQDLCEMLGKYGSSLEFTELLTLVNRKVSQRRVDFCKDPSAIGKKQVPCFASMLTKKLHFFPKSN

[21] = Shn3 3'UTR reporter inhibitors, dose response, cell-based, Clone20 osteoblasts, firefly luciferase, cherry-picked (AID 624132); assay type: functional;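 note: firefly luciferase luminescence from reporter carrying the Shn3 3'UTR in osteoblasts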
[22] = target: Caspase-8 (Homo sapiens, UniProt Q14790); assay: caspase-8 inhibition counter-screen, dose response, selectivity assay for caspase-6 inhibitor project, biochemical, Z-IETD-R110 fluorescence, cherry-picked samples (AID 743294)
Caspase-8, sequence (Q14790 217-374 limits assumed): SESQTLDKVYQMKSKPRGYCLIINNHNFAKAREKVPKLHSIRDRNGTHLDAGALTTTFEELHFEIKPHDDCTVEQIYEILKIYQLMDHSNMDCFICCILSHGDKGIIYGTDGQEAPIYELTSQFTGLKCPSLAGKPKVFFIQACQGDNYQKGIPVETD
Caspase-8, sequence (Q14790 385-479 limits assumed): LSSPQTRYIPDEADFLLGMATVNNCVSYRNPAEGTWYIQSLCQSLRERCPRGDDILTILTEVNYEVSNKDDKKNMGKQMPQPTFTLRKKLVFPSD

[23] = inhibitors of clade B AD8 Env fusion, dose response, cell-based, cherry-pick (AID 652062); assay type: functional;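 note: luciferase signal from cell-cell fusion driven by HIV-1 clade B AD8 Env; potency is for inhibitors of fusion seen as a drop in luminescence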
[24] = control 3'UTR Renilla luciferase suppression, dose response, counter-screen for Shn3 inhibitor project, cell-based, Clone20-Shn3RL, cherry-picked (AID 624133); assay type: functional
[25] = off-target signal loss in HeLa-CEM21 co-culture – HeLa F-luc CTL cells, cherry-picked, counter-screen for HIV-1 Env fusion inhibitor project, dose response (AID 652040); assay type: functional, cell-based;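 note: potency for signal decrease marking cytotoxic or nonspecific inhibition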
[26] = HEK293 Cytotoxicity Assay Measured in Cell-Based System Using Plate Reader - 7071-01_Inhibitor_Dose_CherryPick_Activity_Set2.; assay type: functional
[27] = system: HEK293; assay: HEK293T cell cytotoxicity, dose response, cytotoxicity control, ATP luminescence, cherry-pick samples (AID 687005); assay type: functional, cell-based; conditions: Homo sapiens;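 note: cells exposed to compound for 48 hours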
[28] = target: Protein Wnt-3a (Mus musculus, UniProt P27467); assay: SAR analysis of small molecule antagonists of Gli-SUFU in a Wnt3a luminescent reporter assay.; assay type: functional
Protein Wnt-3a, sequence (P27467 whole entry): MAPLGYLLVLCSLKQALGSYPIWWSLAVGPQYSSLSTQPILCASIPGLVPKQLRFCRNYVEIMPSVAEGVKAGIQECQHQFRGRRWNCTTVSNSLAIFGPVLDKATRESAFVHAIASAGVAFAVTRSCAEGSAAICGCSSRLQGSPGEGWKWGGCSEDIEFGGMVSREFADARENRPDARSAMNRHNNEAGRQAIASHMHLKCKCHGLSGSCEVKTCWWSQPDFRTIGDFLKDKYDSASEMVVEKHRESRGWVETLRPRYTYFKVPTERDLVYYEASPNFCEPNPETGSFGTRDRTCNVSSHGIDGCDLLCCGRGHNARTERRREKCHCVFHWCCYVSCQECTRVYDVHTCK

[29] = HeLa cell cytotoxicity, dose response, cytotoxicity control, 24 h, plate reader, dry powder (AID 686928); assay type: functional, cell-based
[30] = cytotoxicity in OVCAR8 ovarian cancer cells, dose response, PAX8 project, cell-based, plate reader, dry powder samples (AID 743197); assay type: functional; conditions: OVCAR-8
[31] = A2780 ovarian cancer cell cytotoxicity, dose response, cytotoxicity control, plate reader, dry powder samples (AID 743046); assay type: functional, cell-based
[32] = Late stage assay provider results from the probe development effort to identify selective inhibitors of heat shock protein 90 (HSP90): Absorbance-based cell proliferation assay in MCF7 cells.; assay type: functional
[33] = Late stage assay provider results from the probe development effort to identify selective inhibitors of heat shock protein 90 (HSP90): Absorbance-based cell proliferation assay in SKBR3 cells.; assay type: functional; conditions: SK-BR-3
[34] = target: Potassium channel subfamily K member 9 (Homo sapiens, UniProt Q9NPC2); assay: TASK3 (KCNK9) channel inhibitors, thallium flux, SAR follow-up, selectivity assay for TASK1 inhibitor project, cell-based, FluxOR thallium flux, concentration-response (AID 652211); assay type: functional;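 note: potency is for inhibitors of the channel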
[35] = target: Potassium channel subfamily K member 3 (Homo sapiens, UniProt O14649); assay: TASK1 (KCNK3) potassium channel inhibitors, SAR follow-up, CHO cells, FluxOR thallium flux (AID 652212); assay type: functional
[36] = ADAM10 inhibitors, peptide cleavage, dose response, biochemical, QFRET (AID 743254);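 note: ADAM10 enzyme with the DM2 quenched FRET peptide as substrate; EDANS fluorescence gain as the protease cuts the substrate; inhibitor potency against ADAM10 proteolytic activity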
[37] = target: T4, Kappa-type opioid receptor (Homo sapiens, UniProt P41145); assay type: functional
T4 sequence (P41145 whole entry, the tested form may be a part): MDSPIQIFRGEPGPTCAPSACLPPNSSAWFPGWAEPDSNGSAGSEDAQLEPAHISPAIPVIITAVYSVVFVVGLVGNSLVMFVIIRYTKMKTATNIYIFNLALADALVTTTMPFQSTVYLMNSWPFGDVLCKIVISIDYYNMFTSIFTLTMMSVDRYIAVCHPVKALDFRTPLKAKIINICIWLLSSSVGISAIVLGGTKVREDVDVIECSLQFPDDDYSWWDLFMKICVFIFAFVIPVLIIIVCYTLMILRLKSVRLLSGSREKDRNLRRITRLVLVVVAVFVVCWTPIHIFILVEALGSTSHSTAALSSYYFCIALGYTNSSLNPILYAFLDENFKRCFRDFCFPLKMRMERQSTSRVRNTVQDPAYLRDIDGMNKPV

[38] = target: T5, Disintegrin and metalloproteinase domain-containing protein 17 (Homo sapiens, UniProt P78536); assay: exosite inhibitors of ADAM17, dose response, biochemical (AID 743260)
T5 sequence (P78536 whole entry, the tested form may be a part): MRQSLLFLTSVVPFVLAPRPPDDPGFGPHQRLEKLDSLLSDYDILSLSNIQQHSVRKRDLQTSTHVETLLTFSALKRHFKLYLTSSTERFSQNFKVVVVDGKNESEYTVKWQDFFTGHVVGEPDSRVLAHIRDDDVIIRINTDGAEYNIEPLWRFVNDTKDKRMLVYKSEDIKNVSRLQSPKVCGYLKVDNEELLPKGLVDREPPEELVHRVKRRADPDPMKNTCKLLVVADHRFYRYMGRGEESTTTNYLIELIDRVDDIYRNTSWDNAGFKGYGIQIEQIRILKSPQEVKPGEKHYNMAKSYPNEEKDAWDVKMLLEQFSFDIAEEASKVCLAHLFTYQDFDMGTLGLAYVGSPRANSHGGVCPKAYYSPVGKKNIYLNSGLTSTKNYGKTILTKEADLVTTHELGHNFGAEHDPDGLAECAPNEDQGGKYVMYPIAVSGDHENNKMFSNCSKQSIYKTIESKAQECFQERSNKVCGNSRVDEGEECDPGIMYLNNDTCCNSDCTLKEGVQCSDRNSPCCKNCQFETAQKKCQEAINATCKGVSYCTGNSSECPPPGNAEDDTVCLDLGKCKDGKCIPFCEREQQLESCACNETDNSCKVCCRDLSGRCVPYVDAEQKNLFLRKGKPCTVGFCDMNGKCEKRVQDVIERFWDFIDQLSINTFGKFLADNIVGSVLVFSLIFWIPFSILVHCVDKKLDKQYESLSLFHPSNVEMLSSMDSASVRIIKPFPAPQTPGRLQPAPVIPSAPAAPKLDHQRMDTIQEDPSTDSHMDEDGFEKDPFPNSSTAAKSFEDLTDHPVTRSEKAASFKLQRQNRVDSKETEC

[39] = target: Beta-galactosidase (Escherichia coli, UniProt Q8VNN2); assay type: functional
Beta-galactosidase, sequence (Q8VNN2 whole entry): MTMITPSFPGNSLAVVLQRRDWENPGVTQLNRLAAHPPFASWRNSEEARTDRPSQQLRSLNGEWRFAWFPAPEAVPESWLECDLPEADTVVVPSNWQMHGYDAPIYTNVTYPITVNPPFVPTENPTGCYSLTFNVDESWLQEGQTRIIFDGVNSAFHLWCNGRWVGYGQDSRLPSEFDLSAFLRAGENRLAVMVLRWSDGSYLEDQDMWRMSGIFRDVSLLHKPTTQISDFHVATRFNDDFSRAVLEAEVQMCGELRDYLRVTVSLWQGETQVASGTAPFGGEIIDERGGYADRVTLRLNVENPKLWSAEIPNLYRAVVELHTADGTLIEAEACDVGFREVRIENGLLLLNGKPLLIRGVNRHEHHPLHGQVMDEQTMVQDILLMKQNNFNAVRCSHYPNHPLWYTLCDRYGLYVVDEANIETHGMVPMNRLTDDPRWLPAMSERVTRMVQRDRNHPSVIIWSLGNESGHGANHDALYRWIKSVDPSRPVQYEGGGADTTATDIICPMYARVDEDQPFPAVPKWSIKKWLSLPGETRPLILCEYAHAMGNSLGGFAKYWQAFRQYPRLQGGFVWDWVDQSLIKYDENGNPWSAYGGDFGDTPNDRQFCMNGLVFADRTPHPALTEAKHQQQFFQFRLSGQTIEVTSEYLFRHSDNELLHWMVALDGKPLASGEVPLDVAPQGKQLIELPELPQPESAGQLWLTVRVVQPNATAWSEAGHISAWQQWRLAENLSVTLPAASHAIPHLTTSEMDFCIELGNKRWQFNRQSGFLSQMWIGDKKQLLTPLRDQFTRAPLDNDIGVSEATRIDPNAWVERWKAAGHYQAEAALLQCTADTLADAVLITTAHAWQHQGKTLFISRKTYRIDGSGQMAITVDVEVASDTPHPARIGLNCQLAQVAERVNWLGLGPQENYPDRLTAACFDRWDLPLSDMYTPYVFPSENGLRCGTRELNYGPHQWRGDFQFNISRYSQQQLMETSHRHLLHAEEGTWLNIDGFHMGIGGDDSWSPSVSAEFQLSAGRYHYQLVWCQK

[40] = target: T4, Kappa-type opioid receptor; assay type: functional; remark: listed apart in the source
[41] = target: T5, Disintegrin and metalloproteinase domain-containing protein 17; assay: ADAM17 protease inhibitors, dose response, counter-screen for ADAM10 exosite inhibitor project, biochemical, quenched FRET substrate (AID 743253)

## COc1cccc(-c2cc3nc(-c4ccccc4)cc(O)n3n2)c1
[1]
  AC50: 2.35 µM (active)

## COCCSc1ccccc1C(=O)Nc1cc(C)on1
[2]
  AC50: 1.06 µM (active)
[3]
  IC50: > 64 µM (inactive)

## Nc1nc(CSc2ccc(Cl)cc2)nc(N2CCCCC2)n1
[4]
  AC50: 26.5 µM (active)

## COc1ccc(-c2nn(C)c(=O)c3ccccc23)cc1NC(=O)Cn1nc(C)c2ccccc2c1=O
[5]
  AC50: > 70 µM (inactive)
[6]
  EC50: > 60 µM (not active)
[7]
  AC50: 4.07 µM (active)
[8]
  IC50: > 50 µM (not active)
[9]
  AC50: 6.21 µM (active)
[10]
  EC50: 1.46 µM (active)

## CC(=O)c1ccc(S(=O)(=O)Nc2cccc(-n3cnnn3)c2)cc1
[11]
  AC50: 12.9 µM (active)
[12]
  IC50: 17.4 µM (active)
[13]
  IC50: 0.526 µM (active)
[14]
  IC50: 1.51 µM (active)
[15]
  IC50: 11.4 µM (active)

## Cc1cccc2cc(C=C3C(=O)NC(=O)NC3=O)c(O)nc12
[16]
  IC50: > 128 µM (inactive)

## Nc1cc2c(cc1Br)nc(O)c1ccccc12
[17]
  AC50: 2.6 µM (active)
[18]
  AC50: 45.8 µM (active)
[19]
  AC50: 9.39 µM (active)
[20]
  AC50: 3.87 µM (active)
[21]
  AC50: 5.46 µM (active)
[22]
  AC50: 5.26 µM (active)
[7]
  AC50: 3.76 µM (active)
[23]
  AC50: 21.6 µM (active)
[24]
  AC50: 22.9 µM (active)
[25]
  AC50: 22.9 µM (active)

## C[C@H]1CN([C@@H](C)CO)S(=O)(=O)c2ccc(Br)cc2O[C@H]1CN(C)S(=O)(=O)c1ccccc1F
[26]
  AC50: 37.9 µM (active)
[27]
  AC50: 37.9 µM (active)

## O=C(Nc1cc(N2CCCCC2)ncn1)c1cc2ccccc2s1
[28]
  IC50: > 21.8 µM (inactive)

## Cc1cc2nc3c(cc2cc1F)c(NC(=O)c1ccco1)nn3C
[29]
  AC50: > 200 µM (inactive)

## C[C@H]1CN([C@@H](C)CO)C(=O)c2cccc(NC(=O)Nc3ccc(C(F)(F)F)cc3)c2O[C@H]1CN(C)C(=O)NC1CCCCC1
[30]
  AC50: > 70 µM (inactive)
[31]
  AC50: 11.9 µM (active)

## COc1ccc(CCN/C=C2/C=C(Br)C(=O)OC2=O)cc1
[32]
  IC50: 1.8 µM (active)
[33]
  IC50: 5.7 µM (active)

## CCOc1ccccc1NC(=O)c1cccc(NC(=O)c2ccccc2OC(F)(F)F)c1
[34]
  IC50: 0.8 µM (active)
[35]
  IC50: 0.114 µM (active)

## COCC/N=c1\scc(-c2cc(OC)ccc2OC)n1/N=C/c1c[nH]c2ccccc12
[36]
  IC50: > 69.5 µM (inactive)
[37]
  IC50: 9.65 µM (active)
[38]
  IC50: > 69.5 µM (inactive)
[39]
  EC50: > 31.5 µM (inactive)
[40]
  IC50: 3.86 µM
[41]
  IC50: > 69.5 µM (inactive)
